What was measured:
[1] = test system: mice with staggered lesions; experiment: Basso Mouse Scale (BMS) open field locomotion after staggered T7/T10 lateral hemisections; assay type: in vivo; conditions: for stepping ability / functional recovery (BMS), chronic compound treatment: daily i.p. treatment from 1 week after injury, BMS about 24 h after previous dose, FIG. 1E, 7A
Method: A staggered lesion paradigm was optimized in which two lateral hemisections were performed at the thoracic (T) 7 and T10 levels simultaneously (FIGS. 1A and 1B), similar to the model previously described (Courtine 2008; van den Brand, 2012). The T10 lesion is a lateral hemisection that ends at the spinal cord midline, while the T7 lesion, contralateral to the T10 lesion, extends slightly beyond the midline (FIG. 1A). With this double hemisection procedure, all descending axons passing T10 are severed, leaving only those crossing the midline between T7 and T10 intact (FIG. 1C). Indeed, by immunohistochemistry with anti-5-HT antibodies, which label serotonergic axons, descending serotonergic axons could be detected in the spinal cord segments between the lesions, but not in the lumbar spinal cord (FIG. 1C). Thus, a relay zone remains between and around the lesions (T7 and T10) where descending axons terminate, and where some propriospinal neurons maintain their connections with lumbar spinal neurons (see herein below).
This double hemisection SCI model was used to seek small molecule compounds that could reactivate the spared, but dormant, spinal connections by monitoring hindlimb motor performance during over-ground locomotion. To this end, daily compound treatment was started 1 week after injury and then monitored the BMS scores approximately 24 hours after the previous day's compound treatment on a weekly basis (FIG. 1D). Behavioral outcomes observed at these time points likely reflect sustained effects of the treatment, which are more clinically relevant.
Surgical Procedures. The procedure of T7 and T10 double lateral hemisection was similar to that described elsewhere (Courtine et al., 2008; van den Brand et al., 2012). Briefly, a midline incision was made over the thoracic vertebrae, followed by a T7-10 laminectomy. For the T7 right side over-hemisection, a scalpel and micro-scissors were carefully used to interrupt the bilateral dorsal column at T7, and ensured no sparing of ventral pathways on the contralateral side (FIG. 1A). For the T10 left hemisection, a scalpel and micro-scissors were carefully used to interrupt only the left side of the spinal cord until the midline. The muscle layers were then sutured, and the skin was secured with wound clips. All animals received post hoc histological analysis, and those with spared 5HT axons at the lumbar spinal cord (L2-5) were excluded for behavioral analysis (FIG. 7).
(§1) Behavioral Experiments. Motor function was evaluated with a locomotor open field rating scale on the Basso Mouse Scale (BMS). For transient pharmacological treatments, ten to fifteen minutes (van den Brand et al., 2012) prior to behavioral tests (grounding walking, all of which were performed individually), mice received systematic administration (i.p.) of the neural modulators listed above. It is important to note that with a single intraperitoneal injection, plasma CNO levels peak at 15 min and become very low by 2 h after injection (Guettier et al., 2009). For chronic pharmacological treatments, 24 hours prior to behavioral tests, mice received systematic administration of the compounds listed above. All behavioral tests were completed within 1-3 hours. For detailed hindlimb kinematic analysis, mice from different groups were placed in the MotoRater (TSE Systems, (Zorner et al., 2010)), and all kinematic analysis was performed based on data collected by the MotoRater.

[2] = Guettier et al., 2009, cited from earlier work
[3] = test system: mice with a complete T8 spinal cord transection; experiment: BMS open field locomotion after complete T8 spinal cord transection; assay type: in vivo, mouse; conditions: T8 complete transection, FIG. 7F
Text: CLP290's effects could result from reactivating the spared dormant descending connections in the spinal cord after SCI. However, it could also act directly on the lumbar spinal cord, independently of descending inputs. […] Therefore, different from this transient effector that acts directly on the lumbar spinal cord, the effects of CLP290 on functional improvement are dependent on spared connections.
The procedure of T8 full transection was similar to that described elsewhere (Courtine et al., 2009). Briefly, a midline incision was made over the thoracic vertebrae, followed by a T8 laminectomy. The complete T8 transection was then performed carefully using both a scalpel and micro-scissors. The muscle layers were then sutured and the skin was secured with wound clips.
as §1

neuropathic pain = conditions: animal models; Gagnon et al., 2013; Ferrini et al., 2017; Knabl et al., 2008; cited from earlier work
c-Fos = c-Fos immunoreactivity in spinal cord segments between T7 and T10 after 1 hour walking; assay type: in vivo, mouse; conditions: chronic treatment
Text: In mature neurons, GABA and glycine are inhibitory because they open chloride channels, which allow chloride ion influx leading to hyperpolarization. In contrast, during development, the elevated intracellular chloride levels render GABAA- and glycine-mediated currents depolarizing and generally excitatory. During early postnatal life, KCC2 upregulation in postnatal neurons is crucial for reducing intracellular chloride concentrations, transforming excitation into inhibition (Ben-Ari et al., 2012; Kaila et al., 2014). Thus, injury-induced KCC2 down-regulation (Boulenguez et al., 2010; Cote et al., 2014) would be expected to restore an immature state in which GABA and glycine receptors can depolarize neurons. In this scenario, KCC2 activation in spinal inhibitory neurons would transform local circuits in the relay zone towards a more physiological state, which is more receptive to descending inputs. To examine this, c-Fos immunoreactivity was used as a proxy of neuronal activity in the spinal cord segments between T7 and T10 at 8 weeks after injury, and after walking on a treadmill for 1 hour. In each group, the majority of c-Fos-positive cells in these spinal segments were also positively stained with NeuN, a neuronal marker (FIG. 11A, 11B). In injured mice without treatment, the c-Fos-positive neurons were concentrated in the dorsal horn of the spinal cord (FIG. 5A-5C), perhaps reflecting hypersensitivity to peripheral sensory inputs in these injured mice. […] This KCC2-transformed distribution pattern is similar to what was detected in intact mice, in response to walking (FIG. 5A-5C).
Immunohistochemistry and Imaging. The paraformaldehyde (PFA) fixed tissues were cryo-protected with 30% sucrose and processed using cryostat (section thickness 40 μm for spinal cord). Sections were treated with a blocking solution containing 10% normal donkey serum with 0.5% Triton-100 for 2 hours at room temperature before staining. The primary antibodies (4 □, overnight) used were: rabbit anti-GFAP [DAKO (Z0334), 1:600]; rabbit anti-5-HT [Immunostar (20080), 1:5,000]; chicken anti-GFP [Abcam (ab13970), 1:400]; rabbit anti-RFP [Abcam (ab34771), 1:400]; rabbit anti-PKCγ [Santa Cruz (sc211), 1:100]; rat anti-HA [Sigma (11867423001), 1:200]; rabbit anti-c-Fos [Cell signaling (2250s), 1:100]; and mouse anti-NeuN [Millipore (MAB377), 1:400]. Secondary antibodies (room temperature, 2 h) included: Alexa Fluor 488-conjugated donkey anti chicken and rabbit; and Alexa Fluor 594-conjugated donkey anti rabbit (all from Invitrogen). c-Fos immunoreactivity of spinal neurons was determined as previously described (Courtine et al., 2009), after 1-hour of continuous quadrupedal free walking (intact), stepping (CLP290 or AAV-KCC2 treated mice) or dragging (vehicle or AAV-GFP treated mice). The mice were returned to their cages, and were then anesthetized and sacrificed by intracardial perfusion of 4% PFA (wt/vol) in phosphate buffered saline (PBS) about 2 hours later.

[4] = T8/9, 8 weeks after injury, FIG. 5A-5C

## CCCCNc1cc(C(=O)O)cc(S(N)(=O)=O)c1Oc1ccccc1 [Bumetanide]
[1]
  stepping ability / functional recovery (BMS), chronic compound treatment: some effects, but without statistical significance

## C[N+]1([O-])CCN(C2=Nc3cc(Cl)ccc3Nc3ccccc32)CC1 [CNO, Clozapine N-oxide]
[2]; by 2 h after single intraperitoneal injection
  plasma CNO levels: very low
[2]; single intraperitoneal injection
  time of peak plasma CNO levels: 15 min

## c1ccc2nc(N3CCNCC3)ccc2c1 [quipazine]
[1]; staggered lesion, 8 weeks after SCI, FIG. 7B
  BMS improvement measured acutely after compound administration: rapid, but transient, BMS improvement
[1]; staggered lesion, FIG. 7B
  duration of acute BMS improvement / locomotion after administration: less than 2 hours
  start of acute BMS improvement after administration: 10 min
[3]; 8 weeks, no chronic treatment
  BMS improvement measured acutely after compound administration: rapid, but transient, BMS improvement
[3]
  duration of acute BMS improvement / locomotion after administration: less than 2 hours
  start of acute BMS improvement after administration: 10 min

## Cn1ncnc1COc1nn2c(-c3cc(F)ccc3F)nnc2cc1C(C)(C)C [L838,417]
Neuropathic pain
  effect on neuropathic pain: reduce neuropathic pain
c-Fos; [4]
  c-Fos-positive neurons in the dorsal horn (laminae I-V): reduced c-Fos-positive neurons in dorsal horn
  c-Fos-positive neurons in the intermediate/ventral spinal cord: without increasing those in intermediate zones and ventral region
c-Fos; staggered injured mice
  neuronal activation levels across spinal cord regions: reduced neuronal activation levels in all spinal cord regions
[1]
  stepping ability / functional recovery (BMS), chronic compound treatment: failed to promote functional motor recovery

From patent publication US20210254101A1, “METHODS FOR TREATING SPINAL CORD INJURY” (THE CHILDREN'S MEDICAL CENTER CORPORATION, priority 2018, published 2021)
